{
  "source": "paper PMC4434909",
  "about": "“In vitro properties of designed antimicrobial peptides that exhibit potent antipneumococcal activity and produces synergism in combination with penicillin” (Scientific Reports, 2015)",
  "key": {"PRSP, PISP, and PSSP": {"tested_on": "PRSP, PISP, and PSSP", "assay_type": "cell-based, Streptococcus pneumoniae", "settings": "30 min post treatment, 2× MIC, 5 × 10^6 CFU/ml in CAMHB, plate count, relative to untreated control", "protocol": "This assay was performed to evaluate the killing kinetics of peptides. One PRSP, PISP, and PSSP isolate were each grown and prepared to 5 × 10^6 CFU/ml. Each isolate in CAMHB was challenged with peptides at two times the respective MIC values. At the indicated time intervals (0, 30, 60, 120, 150, 180, 210, and 240 min; “0” indicate pretreatment), 10 μl of suspension was removed and immediately serially diluted in cold phosphate-buffered saline to arrest further reaction before spread-plated on MHA to obtain viable colony counts. The percentage cell recovered was calculated by dividing the surviving CFU of the treated cells over the surviving CFU of the untreated control cells at the respective time points. Results were pooled from three independent experiments and expressed as mean ± standard deviation (SD)."}, "human erythrocytes": {"tested_on": "human erythrocytes", "experiment": "Hemolytic activity", "assay_type": "cell-based", "protocol": "Hemolytic assay was performed as described. Freshly drawn human erythrocytes were rinsed three times with PBS and resuspended in PBS to 4% (v/v). One hundred microliters of the suspension was added to 96-well microtiter plate containing equal volume of peptides to give final concentrations of peptides encompassing the range of 1.96–250 μg/ml. PBS and 0.1% (v/v) Triton-X 100 were used as 0% and 100% hemolytic control respectively. Plates were incubated at 37°C for 1 hr. Subsequently, the plate was centrifuged and the supernatant was transferred to a new plate. The release of hemoglobin in the supernatant was monitored at absorbance of 450 nm using Glomax Multidetection system (Promega, USA). Results were pooled from three independent experiments and expressed as mean ± SD. HC10 and HC50 were defined as the peptide concentrations causing 10% and 50% hemolysis on human erythrocytes, respectively. Hmax was the percentage hemolysis observed at the maximum concentration as defined throughout this study (all peptides 250 μg/ml, PEN 4 μg/ml)."}, "A549 cell line": {"tested_on": "A549 cell line", "experiment": "Cytotoxicity against human cell lines (CellTiter 96 AQueous)", "assay_type": "cell-based", "protocol": "(§1) Both the NL20 human lung bronchial normal epithelial cell line and the A549 human lung alveolar adenocarcinoma epithelial cell line were used for cell cytotoxicity tests. Besides investigating the cytotoxicity of peptides, differences in cell viability between the two cell lines can be used to evaluate the cell line selectivity and to assess potential anticancer potential of the peptides. NL20 cell line was grown in Ham's F12 medium and A549 cell line was grown in Roswell Park Memorial Institute medium. Both media were supplemented with fetal bovine serum to 10% (v/v) as growth medium or 2% (v/v) as maintenance medium in cell cytotoxicity testing. The assay was performed as described by Lee et al.[26]. NL20 cells was seeded overnight at 3 × 10^4 cells/well in 96-well cell culture-treated flat bottom microtiter plate and treated with serial dilutions of peptide at a final concentration of 1.95–250 μg/ml. PEN was tested from 0.03–4 μg/ml, the same range used to classify the susceptibility of pneumococcal isolates in this study. Test using A549 cells followed the same procedures with 1 × 10^4 cells/well. Plates were incubated at 37°C under 5% CO2 for 24, 48, and 72 hrs. Cell viability was detected by using CellTiter 96® AQueous Non-Radioactive Cell Proliferation assay (Promega, USA) and the colorimetric changes were read with Glomax multidetection system (Promega, USA) at OD 490 nm. Results were pooled from three independent experiments and expressed as mean ± SD. […] Imax was the percentage of cell viable treated with peptides/PEN at the maximum concentration as defined throughout this study (all peptides 250 μg/ml, PEN 4 μg/ml)."}, "NL20 cell line": {"tested_on": "NL20 cell line", "experiment": "Cytotoxicity against human cell lines (CellTiter 96 AQueous)", "assay_type": "cell-based", "protocol": "as §1"}},
  "data": [
    {"substance": "penicillin [reference compound]", "values": [
      {"measurement": "CFU recovered (viability), all three groups of pneumococci", "setting": "PRSP, PISP, and PSSP", "value": "60–78%"},
      {"measurement": "HC10", "setting": "human erythrocytes", "value": ">4", "unit": "µg/mL"},
      {"measurement": "HC50", "setting": "human erythrocytes", "value": ">4", "unit": "µg/mL"},
      {"measurement": "IC50, A549 cell line, 24 hrs", "setting": "A549 cell line", "value": ">4", "unit": "µg/mL"},
      {"measurement": "IC50, A549 cell line, 48 hrs", "setting": "A549 cell line", "value": ">4", "unit": "µg/mL"},
      {"measurement": "IC50, A549 cell line, 72 hrs", "setting": "A549 cell line", "value": ">4", "unit": "µg/mL"},
      {"measurement": "IC50, NL20 cell line, 24 hrs", "setting": "NL20 cell line", "value": ">4", "unit": "µg/mL"},
      {"measurement": "IC50, NL20 cell line, 48 hrs", "setting": "NL20 cell line", "value": ">4", "unit": "µg/mL"},
      {"measurement": "IC50, NL20 cell line, 72 hrs", "setting": "NL20 cell line", "value": ">4", "unit": "µg/mL"},
      {"measurement": "Imax, NL20 cell line, 24 hrs", "setting": "NL20 cell line", "value": "105.2 ± 0.2", "unit": "%"},
      {"measurement": "Imax, NL20 cell line, 48 hrs", "setting": "NL20 cell line", "value": "106.1 ± 6.2", "unit": "%"},
      {"measurement": "Imax, NL20 cell line, 72 hrs", "setting": "NL20 cell line", "value": "88.3 ± 0.4", "unit": "%"}
    ]}
  ]
}
